Consider seven compounds from patent publication US7183411B2, “Naphthol, quinoline and isoquinoline-derived urea modulators of vanilloid VR1 receptor” (Janssen Pharmaceutica N.V., priority 2002, dated 2007).

A value given as a limit tells only on which side of the number the result lay.

For test [1], the system named is Carrageenan paw-induced thermal hyperalgesia. Description: Carrageenan paw-induced thermal hyperalgesia. It counts as in vivo. Conditions: rat, po, reversal of carrageenan thermal hyperalgesia; read-out: CgHP ED50. As to the method: Each rat is placed on a heated surface (51° C.) in order to measure the time necessary to elicit a response, and an initial (baseline) response time to a thermal stimuli was recorded for each animal. A response is defined as any shaking, licking, or tucking of the treated paw or jumping. Animals not treated with a test compound respond in approximately 20 seconds. The maximal exposure time permitted is 60 seconds to prevent tissue damage. Rats were injected with an irritant (e.g., 1% carrageenan solution in 0.9% saline) subcutaneously into the sub-plantar tissue of the left hind paw to stimulate an acute inflammatory reaction.
Two hours later, the response time of the animal to the thermal stimulus was evaluated and compared to the animal's baseline response time. This shorter response time was recorded as percent hyperalgesia (% H). A cut-off value for % H (usually 75%) was used during analysis to ensure that the animals were hyperalgesic. Animals were then dosed with test drug or vehicle.
At some time(s) later (typically 45 and 90 minutes), the response time of the animal to the thermal stimulus was again evaluated. For each time point, a percent reversal of hyperalgesia (% R) was calculated using the following formula: % R=(Drug Latency−Carrageenan latency)/(Baseline latency−Carrageenan latency). ED50 values were calculated from % R obtained at several drug doses.
On the technique in general: In the carrageenan paw model, swelling and tenderness develop within hours.

In test [2] the target is T1, human VR1 vanilloid receptors (Homo sapiens, UniProt Q8NER1).
T1 construct: expressed in transfected cells; host or cells: HEK293
T1 sequence (Q8NER1 whole entry): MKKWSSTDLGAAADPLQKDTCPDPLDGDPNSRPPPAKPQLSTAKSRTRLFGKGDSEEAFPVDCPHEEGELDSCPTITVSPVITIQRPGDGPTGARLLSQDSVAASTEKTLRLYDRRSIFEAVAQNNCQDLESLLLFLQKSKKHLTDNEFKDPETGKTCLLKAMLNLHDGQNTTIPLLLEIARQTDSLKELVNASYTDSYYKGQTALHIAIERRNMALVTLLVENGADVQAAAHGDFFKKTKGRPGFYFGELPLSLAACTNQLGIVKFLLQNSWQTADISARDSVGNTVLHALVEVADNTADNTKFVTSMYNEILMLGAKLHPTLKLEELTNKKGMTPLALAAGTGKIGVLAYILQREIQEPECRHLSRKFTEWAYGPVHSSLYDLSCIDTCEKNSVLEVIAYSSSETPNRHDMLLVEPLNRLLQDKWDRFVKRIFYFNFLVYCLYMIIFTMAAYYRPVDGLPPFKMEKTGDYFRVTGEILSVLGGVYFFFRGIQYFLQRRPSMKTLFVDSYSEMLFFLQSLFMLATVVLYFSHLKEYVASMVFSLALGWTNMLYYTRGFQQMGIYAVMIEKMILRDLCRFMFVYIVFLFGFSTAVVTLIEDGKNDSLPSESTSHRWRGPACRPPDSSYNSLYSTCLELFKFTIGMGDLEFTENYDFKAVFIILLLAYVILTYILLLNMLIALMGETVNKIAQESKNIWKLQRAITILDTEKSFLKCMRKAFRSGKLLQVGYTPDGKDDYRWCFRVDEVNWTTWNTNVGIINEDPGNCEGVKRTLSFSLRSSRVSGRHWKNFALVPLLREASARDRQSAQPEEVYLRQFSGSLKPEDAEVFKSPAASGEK
As to the kind of experiment: [3H] RTX binding assay, hVR1 membranes from transfected HEK293 cells. The note with it: human VR1, read-out: Receptor binding Ki. The method, then: Compounds of the present invention were tested for their ability to inhibit the binding of [^3H] RTX to hVR1 receptors in a [^3H] RTX binding assay as previously described (Zhang, Sui-Po. Improved ligand binding assays for vanilloid receptors. PCT Int. Appl. (2002), 29 pp. CODEN: PIXXD2 WO 0233411 A1 20020425 AN 2002:315209; Grant, Elfrida R.; Dubin, Adrienne E.; Zhang, Sui-Po; Zivin, Robert A.; Zhong, Zhong Simultaneous intracellular calcium and sodium flux imaging in human vanilloid receptor 1 (VR1)-transfected human embryonic kidney cells: a method to resolve ionic dependence of VR1-mediated cell death. Journal of Pharmacology and Experimental Therapeutics (2002), 300(1), 9–17.)
HEK293 cells were transfected with human VR1 vanilloid receptors and washed with Hank's Balanced Salt Solution, dissociated with cell dissociation buffer (Sigma), and then centrifuged at 1000×g for 5 min. Cell pellets were homogenized in cold 20 mM HEPES buffer, pH 7.4, containing 5.8 mM NaCl, 320 mM sucrose, 2 mM MgCl2, 0.75 CaCl2 and 5 mM KCl and centrifuged at 1000×g for 15 min. The resultant supernate was then centrifuged at 40000×g for 15 min. The pelleted membranes were kept in an −80° C. freezer.
Approximately 120 μg protein/ml from membranes were incubated with indicated concentrations of [^3H] RTX in 0.5 ml of the HEPES buffer (pH 7.4) containing 0.25 mg/mL fatty acid-free bovine serum albumin at 37° C. for 60 min. The reaction mixture was then cooled to 4° C., 0.1 mg α1-acid glycoprotein added to each sample and incubated at 4° C. for 15 min. The samples were centrifuged at 18500×g for 15 min. The tip of the microcentrifuge tube containing the pellet was cut off. Bound radioactivity was quantified by scintillation counting. Non-specific binding was tested in the presence of 200 nM unlabeled RTX.

A further test has as its target T2, human VR1 (Homo sapiens, UniProt Q8NER1).
T2 construct: expressed in transfected cells; host or cells: HEK293
Description: Human VR1 functional assay (FLIPR intracellular Ca2+, capsaicin challenge). It counts as cell-based. Conditions: read-out: In vitro functional assays hIC50 or EC50. The method, then:
The functional activity of the test compounds was determined by measuring changes in intracellular calcium concentration using a Ca^++-sensitive fluorescent dye and FLIPR™ technology.
HEK293 Cells expressing human VR1 were grown on poly-D-lysine coated 96 well black-walled plates (BD 354640) and 2 days later loaded with Fluo-3/AM for 1 hour and subsequently tested for agonist-induced increases in intracellular Ca^2+ levels using FLIPR™ technology. […] EC50 or IC50 values were determined from dose-response studies.

Test [3] deals with capsaicin-induced guinea pig bronchial ring contraction. As to the kind of experiment: Isolated guinea pig bronchial rings, capsaicin-induced contraction (organ bath). The method, then:
Aminotetralin VR1 antagonists were tested for their potency to block capsaicin-induced guinea pig bronchial ring contraction in a standard in vitro organ bath assay [Tucker, 2001]. Two mm rings of bronchial tissue obtained from male guinea pigs (325 g) were suspended in normal Krebs solution between two wire hooks under an initial loading tension of 1 gram. The saline was maintained in a 5% CO2 and 95% O2 atmosphere at 37° C. in the presence of indomethacin (5 μM). A sub-maximal dose of 5-Methylfurmethide (5Mef, 1 μM) was added to each tissue to determine responsiveness using an isometric force transducer. After washout, tissues were exposed to compounds or vehicle for 30 min, treated with thiorphan (10 μM, 5% Na2CO3), and primed using KCl in increasing linear concentrations from 1 mM at 1 mM intervals until a slight increase in muscle tone was induced (˜1% of 5Mef response). […] The dose response curve was calculated as % max of the 5-Mef response and estimated pA2 were determined [Tucker, 2001]).

Test [4] has as its system DSS-induced acute colitis. Description: Rodent colitis model (5% dextran sulfate sodium). It counts as in vivo, mice or rats. Conditions: preliminary study. As to the method: 5% Dextran Sulfate Sodium administered in the drinking water of mice or rats for 7 days results in an acute colitis with some morphological changes that are similar to human ulcerative colitis. Among those changes are colon shortening, accumulation of neutrophils and other inflammatory cells, decreases in colon weight, decreases in body weight, tissue damage in the colon, and loss of stool consistency.
Each animal is dosed daily in the morning and late afternoon for BID dosing. Treatment with vehicle or test compound begins on day 0, immediately after initial body weights are taken, and ends on day 6. Water bottles are removed and replaced by graduated water bottles containing 5% DSS in indicated groups. Tap water remains on control groups only. Sufficient DSS drinking water is placed in graduated water bottles and refilled each day to monitor daily output. Animals are weighed daily from day 0 to 7, and animal condition and the consistency of stools recorded. Following sacrifice of the animal on day 7, the colon is surgically removed from the distal rectum (anus) to the cecal-colonic juncture and the colon length and weight measured. Colon slices may be obtained for histological evaluation. […] Water consumption and body weights are measured daily. […] An increase in myeloperoxidase activity occurs in this model and is evaluated separately.

A further test concerns the target T3, VR1 (rat spinal cord) (Rattus norvegicus, UniProt O35433).
T3 construct: Rat spinal cord was homogenized twice with a Polytron; from tissue; host or cells: rat spinal cord membranes
Description: [3H]-RTX binding assay using rat tissue (spinal cord membranes). Conditions: cells marked (rat), read-out: Receptor binding Ki (rat). The method, then:
Alternatively, a binding assay using rat tissue was used. Rat spinal cord was homogenized twice with a Polytron and centrifuged at 3000 rpm for 10 min in HEPES buffer containing 20 mM HEPES, pH 7.4, NaCl 5.8 mM, sucrose 320 mM, MgCl2 2 mM, CaCl2 0.75 mM and KCl 5 mM. The supernatant was then centrifuged at 18,000 rpm for 20 min. The pellet was saved in a tube and 10 ml assay buffer was added into the tube. The pellet and buffer were mixed with a Polytron. The assay contained 120 μg/ml membrane protein and 0.3–0.6 nM [^3H]-RTX (NEN, Boston) in a total volume of 0.5 ml HEPES buffer. Following-incubation for 60 min at 37 C, the samples were cooled down on ice, and 100 mg of α-acid glycoprotein were added into the samples. After centrifugation at 13,000 rpm for 15 min, the supernatant was aspirated and the tips of tubes were cut off and placed into 6 ml vials. Data were calculated according to the equation: % inhibition=(total binding−binding)*100/(total binding−non specific binding). Ki value values were calculated using a Prism program.

In test [5] the target is T4, VR1 expressed endogenously on small rat dorsal root ganglion (DRG) neurons (Rattus norvegicus, UniProt O35433).
T4 construct: VR1 expressed endogenously on small rat dorsal root ganglion (DRG) neurons; endogenous in cells; host or cells: dissociated rat DRG neurons
T4 sequence (O35433 whole entry): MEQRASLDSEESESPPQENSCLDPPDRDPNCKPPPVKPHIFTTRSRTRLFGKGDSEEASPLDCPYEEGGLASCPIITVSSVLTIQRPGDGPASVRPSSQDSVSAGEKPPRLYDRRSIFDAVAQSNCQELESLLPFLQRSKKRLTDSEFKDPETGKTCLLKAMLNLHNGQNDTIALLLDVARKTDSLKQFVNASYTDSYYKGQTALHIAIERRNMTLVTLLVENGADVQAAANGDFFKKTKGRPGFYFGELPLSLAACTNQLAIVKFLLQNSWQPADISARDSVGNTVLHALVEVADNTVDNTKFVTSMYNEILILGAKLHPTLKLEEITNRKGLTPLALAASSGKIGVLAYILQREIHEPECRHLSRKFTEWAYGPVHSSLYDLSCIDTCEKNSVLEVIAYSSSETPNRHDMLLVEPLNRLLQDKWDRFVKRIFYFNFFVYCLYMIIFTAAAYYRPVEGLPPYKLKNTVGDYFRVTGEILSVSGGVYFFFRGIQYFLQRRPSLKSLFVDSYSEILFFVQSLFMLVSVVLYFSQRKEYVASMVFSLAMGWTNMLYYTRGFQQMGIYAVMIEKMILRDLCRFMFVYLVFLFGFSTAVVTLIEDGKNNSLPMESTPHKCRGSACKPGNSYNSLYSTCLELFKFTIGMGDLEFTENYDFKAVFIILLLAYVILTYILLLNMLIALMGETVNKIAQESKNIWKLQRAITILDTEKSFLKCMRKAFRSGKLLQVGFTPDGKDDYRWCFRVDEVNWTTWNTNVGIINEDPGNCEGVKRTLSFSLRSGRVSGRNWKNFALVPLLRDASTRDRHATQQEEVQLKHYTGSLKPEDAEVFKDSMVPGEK
Description: Electrophysiologic functional assay using dissociated rat DRG cells. Conditions: read-out: In vitro functional assays Estimated pA2 (rat) (converted). Format: cell-based. The method, then:
Compounds are tested for their activity on VR1 expressed endogenously on small rat dorsal root ganglion (DRG) neurons. DRG neurons from normal rats were dissociated (see methods in Chaplan et al., 2003) and whole cell currents mediated by VR1 were recorded using the whole cell patch clamp technique.

Test [6] deals with capsaicin-induced cough responses. As to the kind of experiment: Capsaicin-induced cough (antitussive efficacy). It counts as in vivo. Conditions: guinea pig, 25 mg/kg IP at -60 min; vehicle 3.0±0.5; P<0.001. The method, then:
The antitussive activity of intraperitoneally (IP) administered compound is assessed at a single dose level against casaicin-induced cough responses as compared to positive and vehicle controls. Thirty-six male Dunkin-Hartley guinea pigs (295–590 g, mean 425 g) are randomly allocated to one of three groups (n=12 guinea pigs per group). […] Guinea pigs are dosed IP at −60 min with vehicle (15% Solutol in 5% dextrose solution); the positive control codeine (25 mg/kg), or test compound (20 mg/kg in 15% Solutol in 5% dextrose solution). Individual guinea pigs are placed in an exposure chamber with an airflow of 3 L/min at −10 min to acclimatize. […] The mean±SEM number of capsaicin-induced cough responses recorded in vehicle pre-treated guinea pigs was 3.0±0.5. […] ANOVA statistical analysis was used to determine the level of significance.

T2 sequence (Q8NER1 whole entry): as the sequence (Q8NER1 whole entry) above
T3 sequence (O35433 whole entry): as the sequence (O35433 whole entry) above

For orientation: ED50 means the midpoint of the dose-response relation. As usually defined, the Ki is the dissociation constant of the complex between target and ligand, obtained from inhibition or displacement. Turning to `O=C(NCc1ccc(C(F)(F)F)cc1)Nc1cccc2cnccc12` [Compound 4], the median effective dose (ED50) in test [1] is 0.804 mg/kg. Further, in test [2], the inhibition constant (Ki) amounted to 6.87 nM.

On to `O=C(NCc1ccc(C(F)(F)F)cc1)Nc1cccc2ccc(O)cc12` [Compound 17], for which, in test [1], the ED50 turned out to be 20 mg/kg. Also, the inhibitory constant (Ki) in test [2] is 0.1 nM. In addition, the IC50 or EC50 at human VR1 is 4 nM.

Consider `CC(C)(C)c1ccc(CNC(=O)Nc2cccc3cnccc23)cc1` [Compound 33], for which the “antagonist Kb (from pA2) against capsaicin-induced contraction” value in test [3] is recorded as 13 nM. For the same compound, the median effective dose (ED50) in test [1] was found to be 0.276 mg/kg. Besides, the Ki in test [2] was found to be 0.26 nM. In test [4], the “protection against colon shortening” value is listed as “did not protect” and the “protection against colon weight loss” value is recorded as “did not protect”. Further, the IC50 or EC50 at human VR1 worked out at 2.7 nM.

Take `O=C(NCc1ccc(-c2cccs2)s1)Nc1cccc2ccc(O)cc12` [Compound 39]: the Ki on VR1 (rat spinal cord) stood at 382 nM.

For `O=C(NCc1ccc(C(F)(F)F)cc1)Nc1cccc2c(Cl)nccc12` [Compound 55, 1-(1-Chloro-isoquinolin-5-yl)-3-(4-trifluoromethyl-benzyl)-urea], in test [5], the Kb is less than 30 nM. Also, the Ki in test [2] worked out at 7.35 nM.

Take `O=C(NCc1ccc(Cl)c(C(F)(F)F)c1)Nc1cccc2ccc(O)cc12` [Compound 57, 1-(4-Chloro-3-trifluoromethyl-benzyl)-3-(7-hydroxy-naphthalen-1-yl)-urea]: the Kb in test [5] is roughly 10 nM. The 50% effective dose (ED50) in test [1] is 0.354 mg/kg. The inhibitory constant (Ki) in test [2] worked out at 1.14 nM.

For `COc1ccc2c3c1O[C@H]1[C@@H](O)C=C[C@H]4[C@@H](C2)N(C)CC[C@@]341` [codeine], the “number of capsaicin-induced cough responses (mean±SEM)” value in test [6] came to 0.58±0.15 coughs.
